Values of other authors as cited in patent US11833140B2, “Compositions and methods for treating, ameliorating and preventing H. pylori infections” (priority 2017, dated 2023).

Assays:
H. pylori (HP) = conditions: first line therapy, with amoxicillin and clarithromycin
[1] = compared with conventional PPI's
H^+/K^+—ATPAs = target: T1, H^+/K^+—ATPAs (Homo sapiens, UniProt P20648); conditions: within 4 hours of its first administration in humans
T1 construct: increase intragastric pH to at least over pH 4.0 within 4 hours of its first administration in humans; host or cells: human stomach in vivo

CYP3A4 = CYP3A4 (Homo sapiens, UniProt P08684)
[2] = after a single 20 mg ingestion

T1 sequence (P20648 whole entry): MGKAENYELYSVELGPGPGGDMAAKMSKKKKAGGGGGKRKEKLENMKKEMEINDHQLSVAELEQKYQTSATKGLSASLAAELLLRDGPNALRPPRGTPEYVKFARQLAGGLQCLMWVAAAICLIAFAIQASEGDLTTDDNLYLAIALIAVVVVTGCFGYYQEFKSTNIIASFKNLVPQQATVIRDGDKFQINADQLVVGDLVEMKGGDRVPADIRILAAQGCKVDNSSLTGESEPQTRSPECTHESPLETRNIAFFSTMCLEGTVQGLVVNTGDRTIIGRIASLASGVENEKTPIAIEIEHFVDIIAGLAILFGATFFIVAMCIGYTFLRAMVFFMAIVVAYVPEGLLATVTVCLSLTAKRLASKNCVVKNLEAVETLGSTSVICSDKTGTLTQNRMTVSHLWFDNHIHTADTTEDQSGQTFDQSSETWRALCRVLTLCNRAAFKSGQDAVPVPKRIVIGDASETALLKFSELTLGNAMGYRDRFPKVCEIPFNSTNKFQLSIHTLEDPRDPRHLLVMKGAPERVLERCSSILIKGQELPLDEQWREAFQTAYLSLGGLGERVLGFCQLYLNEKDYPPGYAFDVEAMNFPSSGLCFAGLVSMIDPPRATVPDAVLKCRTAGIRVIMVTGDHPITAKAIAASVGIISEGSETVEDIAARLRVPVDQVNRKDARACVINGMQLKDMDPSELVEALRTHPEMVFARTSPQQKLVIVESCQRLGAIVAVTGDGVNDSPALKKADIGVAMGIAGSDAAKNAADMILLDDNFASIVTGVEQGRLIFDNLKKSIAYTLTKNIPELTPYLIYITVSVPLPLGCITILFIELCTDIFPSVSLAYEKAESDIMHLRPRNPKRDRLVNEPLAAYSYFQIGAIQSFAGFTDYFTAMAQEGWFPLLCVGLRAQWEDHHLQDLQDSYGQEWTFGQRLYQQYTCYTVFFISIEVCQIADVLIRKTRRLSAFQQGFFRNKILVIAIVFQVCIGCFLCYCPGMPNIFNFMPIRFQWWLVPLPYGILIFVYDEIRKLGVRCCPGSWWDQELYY
T1 sequence (P51164 whole entry partner): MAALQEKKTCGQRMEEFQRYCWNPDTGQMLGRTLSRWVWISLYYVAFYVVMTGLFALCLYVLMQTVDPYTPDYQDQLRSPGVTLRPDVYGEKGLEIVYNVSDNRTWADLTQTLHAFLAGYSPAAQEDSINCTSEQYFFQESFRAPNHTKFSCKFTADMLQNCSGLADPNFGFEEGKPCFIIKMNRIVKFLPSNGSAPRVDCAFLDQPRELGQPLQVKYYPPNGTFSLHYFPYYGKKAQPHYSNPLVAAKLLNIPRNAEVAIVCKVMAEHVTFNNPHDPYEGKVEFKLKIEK
Sequence of CYP3A4 (P08684 whole entry): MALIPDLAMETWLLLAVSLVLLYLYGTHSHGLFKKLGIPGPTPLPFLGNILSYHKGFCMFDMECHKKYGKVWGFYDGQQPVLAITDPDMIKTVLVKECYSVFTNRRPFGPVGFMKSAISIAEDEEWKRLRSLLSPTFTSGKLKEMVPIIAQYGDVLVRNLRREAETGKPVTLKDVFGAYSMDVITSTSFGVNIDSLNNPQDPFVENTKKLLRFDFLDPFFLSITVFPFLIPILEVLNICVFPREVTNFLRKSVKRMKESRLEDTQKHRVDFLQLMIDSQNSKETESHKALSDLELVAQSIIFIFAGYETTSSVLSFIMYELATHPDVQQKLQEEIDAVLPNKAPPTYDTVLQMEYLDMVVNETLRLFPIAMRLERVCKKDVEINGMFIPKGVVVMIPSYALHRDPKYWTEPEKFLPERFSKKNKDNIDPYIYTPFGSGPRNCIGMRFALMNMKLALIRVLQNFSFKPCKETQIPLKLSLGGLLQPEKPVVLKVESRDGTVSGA

| Compound | H. pylori (HP) eradication rate (H. pylori (HP)) | stability at neutral pH [1] | metabolised through the hepatic CYP2C19 haplotypes (CYP2C19) | intragastric pH (H^+/K^+—ATPAs) | metabolised by (CYP3A4) | plasma half-life [2] |
| --- | --- | --- | --- | --- | --- | --- |
| Cc1c(OCC(F)(F)F)ccnc1C[S+]([O-])c1nc2ccccc2[nH]1 (stereo not drawn) [lansoprazole] | 76% |  |  |  |  |  |
| CNCc1cc(-c2ccccc2F)n(S(=O)(=O)c2cccnc2)c1.O=C(O)/C=C/C(=O)O [vonoprazan, 1-(5-(2-fluorophenyl)-1-(pyridin-3-ylsulfonyl)-1H-pyrrol-3-yl)-N-methylmethanamine fumarate] |  | more stable | not metabolised | > 4.0 pH | by the CYP3A4 system | 7 h |
